According to US20230217875A1, “IN VITRO EMBRYO RESCUE” (priority 2020, published 2023):

Experiments:
[1] = test system: Triploid Arabidopsis thaliana (Col-0) embryos; test: in vitro embryo rescue of interploidy hybridization (Col 2x x Col 4x), embryo survival; type: cell-based; conditions: for embryo appearance and growth: MS medium supplemented with the sugar, majority of triploid embryos (FIGS. 1C-1H)
Procedure: (§1) Seeds of Arabidopsis and Capsella were surface sterilized (5% sodium hypochlorite, 0.05% Triton X-100) for 10 min, washed three times in sterile ddH2O and then plated on half Murashige and Skoog (MS) medium, i.e., MS medium as defined below but half the concentration of the included ingredients. After stratification for 3 day at 4° C., plants were grown in a growth room under long-day photoperiod (16 hours light and 8 hours darkness) at 22° C. Eight-day-old seedlings were transferred to soil and plants were grown in a growth room at 60% humidity and daily cycles of 16 hours light at 22° C. and 8 hours darkness at 18° C. For crosses, designated female flower buds were emasculated, and the pistils hand-pollinated at 2 days after emasculation.
(§2) • 70% Ethanol; • Sterilizing solution (5% sodium hypochlorite+0.01% (v/v) of Triton X-100 or TWEEN® 20); • Autoclaved water; • Murashige & Skoog (MS) medium (Murashige and Skoog 1962): MS basal salt mixture 4.4 g/L, 0.7% plant agar, pH 5.8 and vitamins (glycine 2 mg/I, myo-inositol 100 mg/I, nicotinic acid 0.5 mg/I, pyridoxine HCl 0.5 mg/I and thiamine HCl 0.1 mg/I); • Nitsch medium (Nitsch & Nitsch 1969): basal salt mixture 2.1 g/L, 0.7% plant agar, pH 5.8 and vitamins (biotin 0.05 mg/I, folic acid 0.5 mg/I, glycine 2 mg/I, myo-inositol 100 mg/I, nicotinic acid 5 mg/I, pyridoxine HCl 0.5 mg/I and thiamine HCl 0.5 mg/I);
(§3) Triploid Arabidopsis seeds were derived from crossing diploid Arabidopsis females with tetraploid Arabidopsis pollen donors. Interspecific hybrid Capsella seeds were derived from crossing Capsella rubella females with Capsella grandiflora pollen donors. Hybrid embryos were isolated at the torpedo stage, at around 8 to 9 days after pollination (DAP) for Arabidopsis and 9 to 10 DAP for Capsella.
Under a sterile hood, the siliques of the crosses were incubated for 30 s in 70% ethanol, 30 s in sterilizing solution and 30 s in sterile water. […] Under a dissection microscope, the silique was opened with fine needles, and all seeds were transferred on the wet filter paper. The embryos were gently dissected and placed on the filter paper. During the dissection, the embryos and seeds should not become desiccated. The plates were sealed with Millipore tape and incubated under long-day photoperiod (16 hours light and 8 hours darkness) at 22° C.
After 5-7 days culture on MS medium with trehalose for Arabidopsis or 7-10 days for Capsella, viable embryos could be recognized by their green color and increased size that corresponded to the size of embryos at the bent cotyledon stage (FIG. 1J). Viable embryos were then transferred to Nitsch medium containing lower concentrations of trehalose, 1.5% (w/v) for Arabidopsis, 3% (w/v) for Capsella. Embryos were transferred from MS medium to Nitsch medium after two weeks. Transfer to Nitsch medium reduced vitrification, which is a frequently occurring phenomenon in tissue-cultured plants causing excessive hydration of tissues and reducing survival rate. Continued growth on MS medium for 3 weeks caused vitrification in Arabidopsis and Capsella seedlings (FIGS. 1L, 2I), but this phenomenon was suppressed by transfer to Nitsch medium (FIGS. 1M, 2J). After about two weeks of incubation, the initiation of roots could be observed (FIG. 1K) and the plantlets could be transferred to soil and continued to grow under long-day photoperiod (16 h light/8 h dark) at 22° C. in a growth room. […]

[2] = test system: Hybrid embryos of Capsella (Capsella rubella×Capsella grandiflora); test: in vitro embryo rescue of interspecies hybrids, embryo survival; type: cell-based; conditions: for effect on embryo survival: MS medium supplemented with the sugar (FIG. 2A); for embryo appearance and growth: MS medium supplemented with the sugar, majority of embryos (FIGS. 2C-2H)
Procedure: as §1, §2, §3
Under a sterile hood, the siliques of the crosses were incubated for 30 s in 70% ethanol, 30 s in sterilizing solution and 30 s in sterile water. The siliques were placed on MS medium supplemented with 3% (w/v) trehalose overlaid with a filter paper and several drops of sterile liquid MS medium were added on the silique. Under a dissection microscope, the silique was opened with fine needles, and all seeds were transferred on the wet filter paper. The embryos were gently dissected and placed on the filter paper. During the dissection, the embryos and seeds should not become desiccated. The plates were sealed with Millipore tape and incubated under long-day photoperiod (16 hours light and 8 hours darkness) at 22° C.
After 5-7 days culture on MS medium with trehalose for Arabidopsis or 7-10 days for Capsella, viable embryos could be recognized by their green color and increased size that corresponded to the size of embryos at the bent cotyledon stage (FIG. 1J). Viable embryos were then transferred to Nitsch medium containing lower concentrations of trehalose, 1.5% (w/v) for Arabidopsis, 3% (w/v) for Capsella. Embryos were transferred from MS medium to Nitsch medium after two weeks. Transfer to Nitsch medium reduced vitrification, which is a frequently occurring phenomenon in tissue-cultured plants causing excessive hydration of tissues and reducing survival rate. Continued growth on MS medium for 3 weeks caused vitrification in Arabidopsis and Capsella seedlings (FIGS. 1L, 2I), but this phenomenon was suppressed by transfer to Nitsch medium (FIGS. 1M, 2J). After about two weeks of incubation, the initiation of roots could be observed (FIG. 1K) and the plantlets could be transferred to soil and continued to grow under long-day photoperiod (16 h light/8 h dark) at 22° C. in a growth room.
To rescue interspecific hybrids of Capsella, the protocol was the same as above for A. thaliana but with minor changes for the trehalose concentration. Hybrid embryos of Capsella (Capsella rubella×Capsella grandiflora) were dissected at the torpedo stage under a stereomicroscope under sterile conditions on a laminar flow bench. […]

[3] = test system: rice triploid embryos; test: rescue of triploid rice embryos, embryo survival; type: cell-based, Oryza sativa L. cv. Suitou nourin 8
Procedure: To obtain triploids of cultivated rice (Oryza sativa L. cv. Suitou nourin 8), diploid plants (JP9838) were emasculated and pollinated with pollen from tetraploid plants (JP7525). Triploid hybrid embryos were dissected under sterile conditions at 10-12 days after pollination (DAP) under a stereomicroscope. The isolated embryos were cultured in vitro on MS medium supplemented with 1.5% (w/v, 43.8 mM) trehalose together with sucrose (1.5%) and compared to MS medium supplemented with only sucrose (3%). […] The viable triploid embryos were transferred to MS medium containing lower concentrations of trehalose (0.75% w/v) together with 2.25% (w/v) sucrose for two weeks, until the initiation of roots could be observed (FIG. 3F). The plantlets were transferred to soil and their ploidy levels were validated by flow cytometry.
Cultivated rice (Oryza sativa L. cv. Suitou nourin 8, diploid, JP9838, and cv. Suitou nourin 8, tetraploid, JP7525) seeds were obtained from the National Institute of Agrobiological Sciences in Japan (http://www.gene.affrc.go.jp). Rice seeds were grown on soil and cultivated in a phytotron. Cultivating conditions were 14 h light and 10 h dark at 30° C./21° C. with a constant humidity of 80% and light intensity of 400 μmol per m^−2 s^−1. For crossing, designated diploid plants were emasculated and pollination was performed immediately after emasculation.
Under a sterile hood, immature triploid rice seeds at 10-12 DAP were dehusked using a pair of tweezers and sterilized for 2 min in 70% ethanol, followed by 15 min in 5% sodium hypochlorite with gentle mixing, 2 min in sterile water. The seeds were placed on MS medium supplemented with 1.5% (w/v) trehalose together with 1.5% (w/v) sucrose overlaid with a filter paper. Under a dissection microscope, the seed coat was removed with fine needles, and dissected embryos were transferred on the wet filter paper. During the dissection, the embryos should not become desiccated. The plates were sealed with Millipore tape and incubated under long-day photoperiod (16 hours light and 8 hours darkness) at 22° C. After 5-7 days of culture on MS medium with trehalose, viable embryos could be recognized by their light green color and increased size (FIG. 3E), compared to aborted embryos with dark brown color (FIG. 3D). Viable embryos were then transferred to MS medium containing lower concentrations of trehalose, 0.75% (w/v) together with 2.25% (w/v) sucrose. After about two weeks of incubation, the initiation of roots could be observed (FIG. 3F) and the plantlets could be transferred to soil and grows in a phytotron.

[4] = MS medium with only sucrose (3%)

O=C(CO)[C@@H](O)[C@H](O)[C@H](O)CO [fructose]
embryo appearance and growth [1]: turned from light green to white and growth was arrested
effect on embryo survival [2]: did not improve embryo survival
embryo appearance and growth [2]: turned from light green to white and growth was arrested

O=C[C@H](O)[C@@H](O)[C@@H](O)[C@H](O)CO [galactose]
embryo appearance and growth [1]: turned from light green to white and growth was arrested
effect on embryo survival [2]: did not improve embryo survival
embryo appearance and growth [2]: turned from light green to white and growth was arrested

OC[C@H]1O[C@@](CO)(O[C@H]2O[C@H](CO)[C@@H](O)[C@H](O)[C@H]2O)[C@@H](O)[C@@H]1O [sucrose]
embryo appearance and growth [1]: turned from light green to white and growth was arrested
effect on embryo survival [2]: did not improve embryo survival
embryo appearance and growth [2]: turned from light green to white and growth was arrested
embryo appearance and growth [3, 4]: arrested growth and turned dark brown
embryos survived [3, 4]: none

OC[C@H]1O[C@H](O[C@H]2O[C@H](CO)[C@@H](O)[C@H](O)[C@H]2O)[C@H](O)[C@@H](O)[C@@H]1O [trehalose]
embryo survival rate ([1]; MS medium supplemented with 3% (w/v) sugar, embryos at torpedo stage, 14 days of in vitro culture (FIG. 1A)): over 70%
highest survival rate ([1]; plates containing 2% (w/v) trehalose, 14 days (FIG. 1B)): over 90%
hybrid embryos rescued (survival rate) ([2]; MS medium supplemented with 3% (w/v) sugar, 14 days (FIG. 2A)): 80%
highest survival rate ([2]; plates containing 6% trehalose, 14 days (FIG. 2B)): over 90%
embryos survived ([3]; MS medium with 1.5% (w/v) trehalose together with sucrose (1.5%), after one week of culture): Around 30%
embryo appearance ([3]; MS medium with 1.5% trehalose together with 1.5% sucrose, after one week): turning light green
